Key:
Assay type in all cases: in vivo
[1] = system: Kochia (Kochia scoparia); assay: Test A preemergence; settings: Bassia scoparia, pre-emergence, 240 h, 0 to 100 scale where 0 is no effect and 100 is complete control, read-out: Kochia plant response rating; for pest or weed control at 31 g/ha: 31 g ai/ha, Preemergence; for pest or weed control at 125 g/ha: 125 g ai/ha, preemergence, visual injury rating, approximately 10 d
Summary of the method: (§1)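 Each rating is a visual injury score from 0 to 100 given about 10 d after treatment, judged against untreated controls kept alongside in the greenhouse. In loam soil–sand blend, seeds got a preemergence directed soil spray, while postemergence plants were 2 to 10 cm tall at spraying.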

[2] = system: barnyardgrass (Echinochloa crus-galli); assay: Test A preemergence; settings: Echinochloa crus-galli, pre-emergence, 240 h, 0 to 100 scale where 0 is no effect and 100 is complete control, read-out: Barnyardgrass plant response rating; for pest or weed control at 31 g/ha: 31 g ai/ha, Preemergence; for pest or weed control at 125 g/ha: 125 g ai/ha, preemergence, visual injury rating, approximately 10 d
Summary of the method: as §1

[3] = system: giant foxtail (Setaria faberii); assay: Test A preemergence; settings: Setaria faberi, pre-emergence, 240 h, 0 to 100 scale where 0 is no effect and 100 is complete control, read-out: Foxtail, Giant plant response rating; for pest or weed control at 31 g/ha: 31 g ai/ha, Preemergence; for pest or weed control at 125 g/ha: 125 g ai/ha, preemergence, visual injury rating, approximately 10 d
Summary of the method: as §1

[4] = system: pigweed (Amaranthus retroflexus); assay: Test A preemergence; settings: Amaranthus retroflexus, pre-emergence, 240 h, 0 to 100 scale where 0 is no effect and 100 is complete control, read-out: Pigweed plant response rating; for pest or weed control at 31 g/ha: 31 g ai/ha, Preemergence; for pest or weed control at 125 g/ha: 125 g ai/ha, preemergence, visual injury rating, approximately 10 d
[5] = system: ragweed (common ragweed, Ambrosia elatior); assay: Test A preemergence; settings: Ambrosia artemisiifolia, pre-emergence, 240 h, 0 to 100 scale where 0 is no effect and 100 is complete control, read-out: Ragweed plant response rating; for pest or weed control at 31 g/ha: 31 g ai/ha, Preemergence; for pest or weed control at 125 g/ha: 125 g ai/ha, preemergence, visual injury rating, approximately 10 d
Summary of the method: as §1

[6] = system: ryegrass, Italian (Italian ryegrass, Lolium multiflorum); assay: Test A preemergence; settings: Lolium multiflorum, pre-emergence, 240 h, 0 to 100 scale where 0 is no effect and 100 is complete control, read-out: Ryegrass, Italian plant response rating; for pest or weed control at 31 g/ha: 31 g ai/ha, Preemergence; for pest or weed control at 125 g/ha: 125 g ai/ha, preemergence, visual injury rating, approximately 10 d
Summary of the method: as §1

[7] = system: Galium (catchweed bedstraw, Galium aparine); assay: Test A postemergence; settings: Galium, post-emergence, 240 h, Postemergence, read-out: Galium plant response rating (0 to 100 scale); for pest or weed control at 125 g/ha: 125 g ai/ha, visual rating about 10 d after treatment; for pest or weed control at 31 g/ha: 31 g ai/ha, 0 is no effect, 100 is complete control
Summary of the method: as §1

[8] = system: Kochia (Kochia scoparia); assay: Test A postemergence; settings: Bassia scoparia, post-emergence, 240 h, Postemergence, read-out: Kochia plant response rating (0 to 100 scale); for pest or weed control at 125 g/ha: 125 g ai/ha, visual rating about 10 d after treatment; for pest or weed control at 31 g/ha: 31 g ai/ha, 0 is no effect, 100 is complete control
Summary of the method: as §1

[9] = system: barnyardgrass (Echinochloa crus-galli); assay: Test A postemergence; settings: Echinochloa crus-galli, post-emergence, 240 h, Postemergence; for pest or weed control at 125 g/ha: 125 g ai/ha, visual rating about 10 d after treatment, read-out: Barnyardgrass plant response rating (0 to 100 scale, 0 no effect, 100 complete control); for pest or weed control at 31 g/ha: 31 g ai/ha, 0 is no effect, 100 is complete control, read-out: Barnyardgrass plant response rating (0 to 100 scale)
Summary of the method: as §1

[10] = system: blackgrass (Alopecurus myosuroides); assay: Test A postemergence; settings: Alopecurus myosuroides, post-emergence, 240 h, Postemergence, read-out: Blackgrass plant response rating (0 to 100 scale); for pest or weed control at 125 g/ha: 125 g ai/ha, visual rating about 10 d after treatment; for pest or weed control at 31 g/ha: 31 g ai/ha, 0 is no effect, 100 is complete control
Summary of the method: as §1

[11] = system: corn (Zea mays); assay: Test A postemergence; settings: Zea mays, post-emergence, 240 h, Postemergence, read-out: Corn plant response rating (0 to 100 scale); for plant injury at 125 g/ha: 125 g ai/ha, visual rating about 10 d after treatment; for plant injury at 31 g/ha: 31 g ai/ha, 0 is no effect, 100 is complete control
Summary of the method: as §1

[12] = system: giant foxtail (Setaria faberii); assay: Test A postemergence; settings: Setaria faberi, post-emergence, 240 h, Postemergence, read-out: Foxtail, Giant plant response rating (0 to 100 scale); for pest or weed control at 125 g/ha: 125 g ai/ha, visual rating about 10 d after treatment; for pest or weed control at 31 g/ha: 31 g ai/ha, 0 is no effect, 100 is complete control
Summary of the method: as §1

[13] = system: pigweed (Amaranthus retroflexus); assay: Test A postemergence; settings: Amaranthus retroflexus, post-emergence, 240 h, Postemergence, read-out: Pigweed plant response rating (0 to 100 scale); for pest or weed control at 125 g/ha: 125 g ai/ha, visual rating about 10 d after treatment; for pest or weed control at 31 g/ha: 31 g ai/ha, 0 is no effect, 100 is complete control
Summary of the method: as §1

[14] = system: ragweed (common ragweed, Ambrosia elatior); assay: Test A postemergence; settings: Ambrosia artemisiifolia, post-emergence, 240 h, Postemergence, read-out: Ragweed plant response rating (0 to 100 scale); for pest or weed control at 125 g/ha: 125 g ai/ha, visual rating about 10 d after treatment; for pest or weed control at 31 g/ha: 31 g ai/ha, 0 is no effect, 100 is complete control
Summary of the method: as §1

[15] = system: ryegrass, Italian (Italian ryegrass, Lolium multiflorum); assay: Test A postemergence; settings: Lolium multiflorum, post-emergence, 240 h, Postemergence, read-out: Ryegrass, Italian plant response rating (0 to 100 scale); for pest or weed control at 125 g/ha: 125 g ai/ha, visual rating about 10 d after treatment; for pest or weed control at 31 g/ha: 31 g ai/ha, 0 is no effect, 100 is complete control
Summary of the method: as §1

[16] = system: wheat (Triticum aestivum); assay: Test A postemergence; settings: Triticum aestivum, post-emergence, 240 h, Postemergence, read-out: Wheat plant response rating (0 to 100 scale); for plant injury at 125 g/ha: 125 g ai/ha, visual rating about 10 d after treatment; for plant injury at 31 g/ha: 31 g ai/ha, 0 is no effect, 100 is complete control
Summary of the method: as §1

[17] = system: barnyardgrass (Echinochloa crus-galli); assay: Test B flooded paddy test; settings: Echinochloa crus-galli, 250 g ai/ha, Flood; 0 to 100 scale where 0 is no effect and 100 is complete control; read-out: Barnyardgrass plant response rating
Summary of the method: (§2)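 Compound goes directly into floodwater once pots are flooded 3 cm above soil, targeting plants at two leaves; the water depth is then held for the test duration. Plants sit 13–15 d in a greenhouse and are rated visually, 100 denoting complete control.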

[18] = system: ducksalad (Heteranthera limosa); assay: Test B flooded paddy test; settings: Heteranthera limosa, 250 g ai/ha, Flood; 0 to 100 scale where 0 is no effect and 100 is complete control; read-out: Ducksalad plant response rating
Summary of the method: as §2

[19] = system: rice (Oryra sativa); assay: Test B flooded paddy test; settings: Oryza sativa, 250 g ai/ha, Flood; 0 to 100 scale where 0 is no effect and 100 is complete control; read-out: Rice plant response rating
Summary of the method: as §2

[20] = system: sedge, umbrella (small-flower umbrella sedge, Cyperus difformis); assay: Test B flooded paddy test; settings: Cyperus difformis, 250 g ai/ha, Flood; 0 to 100 scale where 0 is no effect and 100 is complete control; read-out: Sedge, Umbrella plant response rating
Summary of the method: as §2

Compound | pest or weed control at 31 g/ha [1] [%] | pest or weed control at 125 g/ha [1] [%] | pest or weed control at 31 g/ha [2] [%] | pest or weed control at 125 g/ha [2] [%] | pest or weed control at 31 g/ha [3] [%] | pest or weed control at 125 g/ha [3] [%] | pest or weed control at 31 g/ha [4] [%] | pest or weed control at 125 g/ha [4] [%] | pest or weed control at 31 g/ha [5] [%] | pest or weed control at 125 g/ha [5] [%] | pest or weed control at 31 g/ha [6] [%] | pest or weed control at 125 g/ha [6] [%] | pest or weed control at 125 g/ha [7] [%] | pest or weed control at 31 g/ha [7] [%] | pest or weed control at 125 g/ha [8] [%] | pest or weed control at 31 g/ha [8] [%] | pest or weed control at 125 g/ha [9] [%] | pest or weed control at 31 g/ha [9] [%] | pest or weed control at 125 g/ha [10] [%] | pest or weed control at 31 g/ha [10] [%] | further results
O=C(Nc1cccc(F)c1F)C1C(=O)N(CC(F)F)CC1c1cccc(C(F)(F)F)c1 (stereo not drawn) [Compound 1294] | 0 | 0 | 0 | 50 | 0 | 30 | 0 | 0 | 0 | 0 | 0 | 0 | 0 | 0 | 0 | 0 | 20 | 0 | 0 | 0 | plant injury at 125 g/ha [11]: 0%; plant injury at 31 g/ha [11]: 0%; pest or weed control at 125 g/ha [12]: 20%; pest or weed control at 31 g/ha [12]: 0%; pest or weed control at 125 g/ha [13]: 0%; pest or weed control at 31 g/ha [13]: 0%; pest or weed control at 125 g/ha [14]: 0%; pest or weed control at 31 g/ha [14]: 0%; pest or weed control at 125 g/ha [15]: 0%; pest or weed control at 31 g/ha [15]: 0%; plant injury at 125 g/ha [16]: 0%; plant injury at 31 g/ha [16]: 0%; pest or weed control at 250 g/ha [17]: 0%; pest or weed control at 250 g/ha [18]: 0%; pest or weed control at 250 g/ha [19]: 0%; pest or weed control at 250 g/ha [20]: 0%
O=C(Nc1ccccc1F)[C@H]1C(=O)N(CC(F)F)C[C@@H]1c1cccc(C(F)(F)F)c1 [Compound 1295] | 0 | 0 | 0 | 0 | 0 | 40 | 0 | 0 | 0 | 0 | 0 | 0 | 0 | 0 | 0 | 0 | 0 | 0 | 0 | 0 | plant injury at 125 g/ha [11]: 0%; plant injury at 31 g/ha [11]: 0%; pest or weed control at 125 g/ha [12]: 0%; pest or weed control at 31 g/ha [12]: 0%; pest or weed control at 125 g/ha [13]: 0%; pest or weed control at 31 g/ha [13]: 0%; pest or weed control at 125 g/ha [14]: 0%; pest or weed control at 31 g/ha [14]: 0%; pest or weed control at 125 g/ha [15]: 0%; pest or weed control at 31 g/ha [15]: 0%; plant injury at 125 g/ha [16]: 0%; plant injury at 31 g/ha [16]: 0%; pest or weed control at 250 g/ha [17]: 0%; pest or weed control at 250 g/ha [18]: 0%; pest or weed control at 250 g/ha [19]: 0%; pest or weed control at 250 g/ha [20]: 0%
